This assay can be described thus: Antiviral activity against HIV protease in absence of human serum.

Broadly, the EC50 is the concentration giving half of the maximal effect. Higher therefore signals a less potent agent.

For `CCCCN1C(=O)N(Cc2cccc(C(=N)NO)c2)[C@H](Cc2ccccc2)[C@H](O)CN1S(=O)(=O)c1cccc(OC)c1`, the half-maximal effective concentration (EC50) came to 30 nM.
